Experimental data published in article PMC2810428 (Journal of medicinal chemistry, 2010).

Legend:
WTβIII = WTβIII vs HeLa pair; ref [32]; cited from earlier work
MDA-MB-435 cells = experiment: Cell cycle analysis by flow cytometry; type: cell-based, human; conditions: paclitaxel positive control (0.0125 µM), data not shown
SK-OV-3-MDR 1–6/6 = SK-OV-3-MDR 1–6/6 vs SK-OV-3 pair; ref [32]; cited from earlier work
L1210 and B16 cells = conditions: read-out: reported IC50 values for L1210 and B16 cells; ref [3]–[5]; cited from earlier work
L1210 cells = experiment: Inhibition of L1210 cell growth; type: cell-based, murine; conditions: L1210 IC50, 9b versus 9a

CC(=O)O[C@H]1C(=O)[C@@]2(C)[C@H]([C@H](OC(=O)c3ccccc3)[C@]3(O)C[C@H](OC(=O)[C@H](O)[C@@H](NC(=O)c4ccccc4)c4ccccc4)C(C)=C1C3(C)C)[C@]1(OC(C)=O)CO[C@@H]1C[C@@H]2O [paclitaxel]
Rr (relative resistance) (WTβIII): 4.7
cell cycle distribution (MDA-MB-435 cells): identical effect
Rr (relative resistance) (SK-OV-3-MDR 1–6/6): 860

COc1ccc(/C=C\c2cc(OC)c(OC)c(OC)c2)cc1O [Compound 1, Combretastatin A-4]
IC50 (L1210 and B16 cells): 3 to 7 nM

COc1cc(C2=NN(C(C)=O)C(c3cccc([N+](=O)[O-])c3)O2)cc(OC)c1OC (stereo not shown) [Compound 9b]
fold decrease in potency on shifting nitro group to the 3’ position (L1210 cells): 9 fold

COc1cc2c(cc1O)CC[C@@H]1[C@@H]2CC[C@]2(C)[C@@H](O)CC[C@@H]12 [2-methoxyestradiol]
Rr (relative resistance) (WTβIII): 1.0
Rr (relative resistance) (SK-OV-3-MDR 1–6/6): 2.6
